Format in all cases: functional, organism-based
The subject of assay [1] is Plasmodium falciparum. Nature of the assay: Antimalarial activity against chloroquine-sensitive Plasmodium falciparum Ro73 infected in human type A+ erythrocytes after 48 hrs by [3H]-hypoxanthine incorporation assay.
The test system of assay [2] is Plasmodium falciparum. Nature of the assay: Antimalarial activity against chloroquine-resistant Plasmodium falciparum T9/94 infected in human type A+ erythrocytes after 48 hrs by [3H]-hypoxanthine incorporation assay.
The subject of assay [3] is Plasmodium falciparum. Nature of the assay: Antimalarial activity against chloroquine-resistant Plasmodium falciparum ItG2F6 infected in human type A+ erythrocytes after 48 hrs by [3H]-hypoxanthine incorporation assay.
Assay [4] relates to Plasmodium falciparum. Nature of the assay: Antimalarial activity against chloroquine-resistant Plasmodium falciparum K1 infected in human type A+ erythrocytes after 48 hrs by [3H]-hypoxanthine incorporation assay.
For assay [5], the system named is Plasmodium falciparum. Nature of the assay: Antimalarial activity against chloroquine-sensitive Plasmodium falciparum NF54 infected in human type A+ erythrocytes after 48 hrs by [3H]-hypoxanthine incorporation assay.
In assay [6] the test system is Plasmodium falciparum. Kind of assay: Antimalarial activity against chloroquine-resistant Plasmodium falciparum INDO infected in human type A+ erythrocytes after 48 hrs by [3H]-hypoxanthine incorporation assay.
The subject of assay [7] is Plasmodium falciparum. Kind of assay: Antimalarial activity against chloroquine-sensitive Plasmodium falciparum RF MEF3 infected in human type A+ erythrocytes after 48 hrs by [3H]-hypoxanthine incorporation assay.
The test system of assay [8] is Plasmodium falciparum. Nature of the assay: Antimalarial activity against chloroquine-resistant Plasmodium falciparum 7G8 infected in human type A+ erythrocytes after 48 hrs by [3H]-hypoxanthine incorporation assay.
In assay [9] the test system is Plasmodium falciparum. Kind of assay: Antimalarial activity against chloroquine-sensitive Plasmodium falciparum FCH-5-C2 infected in human type A+ erythrocytes after 48 hrs by [3H]-hypoxanthine incorporation assay.
The test system of assay [10] is Plasmodium falciparum. Kind of assay: Antimalarial activity against chloroquine-sensitive Plasmodium falciparum HB3 infected in human type A+ erythrocytes after 48 hrs by [3H]-hypoxanthine incorporation assay.
The test system of assay [11] is Plasmodium falciparum. Kind of assay: Antimalarial activity against chloroquine-resistant Plasmodium falciparum W2MEF infected in human type A+ erythrocytes after 48 hrs by [3H]-hypoxanthine incorporation assay.
For assay [12], the system named is Plasmodium falciparum. Kind of assay: Antimalarial activity against chloroquine-resistant Plasmodium falciparum W2 infected in human type A+ erythrocytes after 48 hrs by [3H]-hypoxanthine incorporation assay.
In assay [13] the test system is Plasmodium falciparum. Kind of assay: Antimalarial activity against chloroquine-resistant Plasmodium falciparum RFCR-3 infected in human type A+ erythrocytes after 48 hrs by [3H]-hypoxanthine incorporation assay.
Assay [14] relates to Plasmodium falciparum. Kind of assay: Antimalarial activity against chloroquine-sensitive Plasmodium falciparum F32 infected in human type A+ erythrocytes after 48 hrs by [3H]-hypoxanthine incorporation assay.
Assay [15] relates to Plasmodium falciparum. Kind of assay: Antimalarial activity against chloroquine-resistant Plasmodium falciparum FCR-3/Gambia infected in human type A+ erythrocytes after 48 hrs by [3H]-hypoxanthine incorporation assay.
Assay [16] concerns Plasmodium falciparum. Kind of assay: Antimalarial activity against chloroquine-sensitive Plasmodium falciparum D6 infected in human type A+ erythrocytes after 48 hrs by [3H]-hypoxanthine incorporation assay.
Assay [17] deals with Plasmodium falciparum. Nature of the assay: Antimalarial activity against chloroquine-resistant Plasmodium falciparum FcM29 infected in human type A+ erythrocytes after 48 hrs by [3H]-hypoxanthine incorporation assay.
In assay [18] the test system is Plasmodium falciparum. Kind of assay: Antimalarial activity against chloroquine-resistant Plasmodium falciparum FcB1/Columbia infected in human type A+ erythrocytes after 48 hrs by [3H]-hypoxanthine incorporation assay.
Assay [19] has as its system Plasmodium falciparum. Kind of assay: Antimalarial activity against chloroquine-resistant Plasmodium falciparum Palo Alto/Ouganda infected in human type A+ erythrocytes after 48 hrs by [3H]-hypoxanthine incorporation assay.
The subject of assay [20] is Plasmodium falciparum. Kind of assay: Antimalarial activity against chloroquine-resistant Plasmodium falciparum FcM29 infected in human red blood cells after 48 hrs by [3H]-hypoxanthine incorporation assay.
In assay [21] the test system is Plasmodium falciparum. Nature of the assay: Antimalarial activity against chloroquine-sensitive Plasmodium falciparum Nigerian infected in human red blood cells after 48 hrs by [3H]-hypoxanthine incorporation assay.
For assay [22], the system named is Plasmodium falciparum. Nature of the assay: Antimalarial activity against chloroquine-resistant Plasmodium falciparum FcB1 infected in human red blood cells after 48 hrs by [3H]-hypoxanthine incorporation assay.

This note sets out measurements from ChEMBL document CHEMBL4190314, “Quinoline hybrids and their antiplasmodial and antimalarial activities” (Eur J Med Chem, 2017).

As a reminder, the IC50 is the concentration that gives 50% inhibition. Low values mean higher potency, high ones lower potency.

For the molecule `Clc1ccc2c(N[C@@H]3CCCC[C@H]3Nc3ccnc4cc(Cl)ccc34)ccnc2c1`, the IC50 in assay [1] was 4 to 13 nM; in assay [2] it was 4 to 13 nM; in assay [3], 4 to 13 nM; in [4], 13 nM; in assay [5], 6 nM; in assay [6], 4 to 13 nM. The IC50 in [7] was 4 to 13 nM; in assay [8], 4 to 13 nM; in [9] it was 4 to 13 nM; in assay [10], 4 nM; in assay [11] it was 4 to 13 nM; in [12], 10 nM. In assay [13], this molecule came in with an IC50 of 4 to 13 nM.
Consider `CC1(C)COC2(CCC(N[C@H]3CC[C@H](Nc4ccnc5cc(Cl)ccc45)CC3)CC2)OO1` (some centres not stated), for which the IC50 in assay [14], in [15], in [16], in [17], in assay [18] and in assay [19] was 7 to 24 nM in each case.
As for `Fc1ccc(C(/C=C/C=C(\c2ccc(F)cc2)N2CCN(c3ccnc4cc(Cl)ccc34)CC2)=[N+]2CCN(c3ccnc4cc(Cl)ccc34)CC2)cc1`, the IC50 came out at 468 nM in assay [20], 350 nM in assay [21] and 444 nM in assay [22].
